Like-named read-outs stand apart in the source and are kept apart here.
System: HBsAg in HepG2.2.15 cells
Experiment: HBsAg assay: inhibition of HBsAg in HepG2.2.15 cells (chemiluminescence immunoassay of supernatant)
Format: cell-based, hepatitis B virus
Description: Inhibition of HBsAg was determined in HepG2.2.15 cells. Cells were maintained in culture medium containing 10% fetal calf serum, […], Glutamine, penicillin/streptomycin. Cells were seeded in 96-well collagen-coated plate at a density of 30,000 cells/well. Serially diluted compounds were added to cells next day at the final DMSO concentration of 0.5%. Cells were incubated with compounds for 2-3 days, after which medium was removed. Fresh medium containing compounds was added to cells for additional 3-4 days. At day 6 after exposure of compounds, supernatant was collected, the HBsAg immunoassay (microplate-based chemiluminescence immunoassay kits, CLIA, Autobio Diagnosics Co., Zhengzhou, China, Catalog #CL0310-2) was used to determine the level of HBsAg according to manufactory instruction. Dose-response curves were generated and the EC50 value (effective concentrations that achieved 50% inhibitory effect) were determined using XLfit software. In addition, cells were seeded at a density of 5,000 cells/well for determination of cell viability in the presence and absence of compounds by using CellTiter-Glo reagent (Promega).

[1] = read-out: sAg EC50, HepG2.2.15 cells, supernatant collected at day 6 after exposure, HBsAg CLIA
[2] = Hepatitis B virus, HepG2.2.15, 144 h, read-out: sAg EC50, HepG2.2.15 cells, supernatant collected at day 6 after exposure, HBsAg CLIA

| SMILES | EC50 [1] | EC50 [2] |
| --- | --- | --- |
| CCC1c2cc(F)c(OC)cc2CN1c1cnc(C(=O)Nc2ccccn2)nc1 (single isomer, unassigned) [Example 108, 5-(1-Ethyl-6-fluoro-5-methoxyisoindolin-2-yl)-N-(pyridin-2-yl)pyrimidine-2-carboxamide] | 0.56 µM |  |
| CCC1c2cc(F)c(OC)cc2CN1c1ccnc(C(=O)NC)n1 (single isomer, unassigned) [Example 109, 4-(1-Ethyl-6-fluoro-5-methoxyisoindolin-2-yl)-N-methylpyrimidine-2-carboxamide] | 42 µM |  |
| CCC1c2cc(F)c(OC)cc2CN1c1ccnc(C(=O)NC)n1 (single isomer, unassigned) [Example 110, 4-(1-Ethyl-6-fluoro-5-methoxyisoindolin-2-yl)-N-methylpyrimidine-2-carboxamide] | 3 µM |  |
| CCC1c2cc(F)c(OC)cc2CCN1c1cnc(C(=O)O)nc1 (single isomer, unassigned) [Example 114, 5-(1-Ethyl-7-fluoro-6-methoxy-3,4-dihydro-1H-isoquinolin-2-yl)pyrimidine-2-carboxylic Acid] | 0.057 µM |  |
| CCC1c2cc(F)c(OC)cc2CCN1c1cnc(C(=O)O)nc1 (single isomer, unassigned) [Example 115, 5-(1-Ethyl-7-fluoro-6-methoxy-3,4-dihydro-1H-isoquinolin-2-yl)pyrimidine-2-carboxylic Acid] | 6 µM |  |
| CCC1c2cc(F)c(F)cc2CN1c1cnc(C(=O)O)nc1 (single isomer, unassigned) [Example 116, 5-(1-Ethyl-5,6-difluoroisoindolin-2-yl)pyrimidine-2-carboxylic Acid] | 3 µM |  |
| CCC1c2cc(F)c(F)cc2CN1c1cnc(C(=O)O)nc1 (single isomer, unassigned) [Example 117, 5-(1-Ethyl-5,6-difluoroisoindolin-2-yl)pyrimidine-2-carboxylic Acid] | 15 µM |  |
| CCC1c2cc(F)c(OC)cc2CCN1c1ccnc(-c2ncccn2)n1 (single isomer, unassigned) [Example 128, 2-(2,2′-Bipyrimidin-4-yl)-1-ethyl-7-fluoro-6-methoxy-1,2,3,4-tetrahydroisoquinoline] | 0.082 µM |  |
| CCC1c2cc(F)c(OC)cc2CCN1c1ccnc(-c2ncccn2)n1 (single isomer, unassigned) [Example 129, 2-(2,2′-Bipyrimidin-4-yl)-1-ethyl-7-fluoro-6-methoxy-1,2,3,4-tetrahydroisoquinoline] | 0.015 µM |  |
| CCCC1c2ccc(F)c(F)c2CCN1c1ccnc(-c2ncccn2)n1 (single isomer, unassigned) [Example 130, 2-([2,2′-Bipyrimidin]-4-yl)-5,6-difluoro-1-propyl-1,2,3,4-tetrahydroisoquinoline] | 0.097 µM |  |
| CCCC1c2ccc(F)c(F)c2CCN1c1ccnc(-c2ncccn2)n1 (single isomer, unassigned) [Example 131, 2-([2,2′-Bipyrimidin]-4-yl)-5,6-difluoro-1-propyl-1,2,3,4-tetrahydroisoquinoline] | 2 µM |  |
| CCC1c2cc(F)c(OC)cc2CCN1c1cnc(-c2ncccn2)nc1 (single isomer, unassigned) [Example 133, 2-(2,2′-Bipyrimidin-5-yl)-1-ethyl-7-fluoro-6-methoxy-1,2,3,4-tetrahydroisoquinoline] | 0.003 µM |  |
| CCC1c2cc(F)c(OC)cc2CCN1c1cnc(-c2ncccn2)nc1 (single isomer, unassigned) [Example 134, 2-(2,2′-Bipyrimidin-5-yl)-1-ethyl-7-fluoro-6-methoxy-1,2,3,4-tetrahydroisoquinoline] | 0.054 µM |  |
| Fc1cc(F)c2c(c1)CN(c1cnc(-c3ncccn3)nc1)CC2 [Example 1, 2-([2,2′-Bipyrimidin]-5-yl)-5,7-difluoro-1,2,3,4-tetrahydroisoquinoline] |  | 1.9 µM |
| Fc1cc(F)c2c(c1)CN(c1ccnc(-c3ncccn3)n1)CC2 [Example 2, 2-([2,2′-Bipyrimidin]-4-yl)-5,7-difluoro-1,2,3,4-tetrahydroisoquinoline] |  | 1.6 µM |
| Fc1ccc2c(c1F)CCN(c1cnc(-c3ncccn3)nc1)C2 [Example 3, 2-([2,2′-Bipyrimidin]-5-yl)-5,6-difluoro-1,2,3,4-tetrahydroisoquinoline] |  | 3.4 µM |
| Fc1ccc2c(c1F)CCN(c1ccnc(-c3ncccn3)n1)C2 [Example 4, 2-([2,2′-Bipyrimidin]-4-yl)-5,6-difluoro-1,2,3,4-tetrahydroisoquinoline] |  | 0.9 µM |
| CC1CN(c2cnc(-c3ncccn3)nc2)Cc2ccccc21 (stereo not shown) [Example 5, 2-([2,2′-Bipyrimidin]-5-yl)-4-methyl-1,2,3,4-tetrahydroisoquinoline] |  | 34 µM |
| CC1c2ccccc2CCN1c1cnc(-c2ncccn2)nc1 (stereo not shown) [Example 6, 1-Methyl-2-(2-pyrimidin-2-ylpyrimidin-5-yl)-3,4-dihydro-1H-isoquinoline] |  | 1.4 µM |
| CC1c2ccccc2CCN1c1ccnc(-c2ncccn2)n1 (stereo not shown) [Example 7, 2-([2,2′-Bipyrimidin]-4-yl)-1-methyl-1,2,3,4-tetrahydroisoquinoline] |  | 1.9 µM |

| SMILES | EC50 [1] | EC50 [2] |
| --- | --- | --- |
| CCC1Cc2ccccc2CN1c1ccnc(-c2ncccn2)n1 (stereo not shown) [Example 8, 2-([2,2′-Bipyrimidin]-4-yl)-3-ethyl-1,2,3,4-tetrahydroisoquinoline] |  | 2.3 µM |
| c1cnc(-c2nccc(N3CCc4ccccc4C3)n2)nc1 [Example 9, 2-([2,2′-Bipyrimidin]-4-yl)-1,2,3,4-tetrahydroisoquinoline] |  | 8.5 µM |
| CCC1c2ccccc2CCN1c1cnc(-c2ncccn2)nc1 (stereo not shown) [Example 10, 2-([2,2′-Bipyrimidin]-5-yl)-1-ethyl-1,2,3,4-tetrahydroisoquinoline] |  | 0.25 µM |
| CCC1c2ccccc2CCN1c1ccnc(-c2ncccn2)n1 (stereo not shown) [Example 13, 2-([2,2′-Bipyrimidin]-4-yl)-1-ethyl-1,2,3,4-tetrahydroisoquinoline] |  | 0.5 µM |
| FC(F)(F)c1cccc2c1CN(c1cnc(-c3ncccn3)nc1)C2 [Example 14, 2-([2,2′-Bipyrimidin]-5-yl)-4-(trifluoromethyl)isoindoline] |  | 25 µM |
| CC1CN(c2ccnc(-c3ncccn3)n2)Cc2ccccc21 (stereo not shown) [Example 15, 2-([2,2′-Bipyrimidin]-4-yl)-4-methyl-1,2,3,4-tetrahydroisoquinoline] |  | 1.1 µM |
| CC1CN(c2cnc(-c3ncccn3)nc2)C(=O)c2ccccc21 (stereo not shown) [Example 16, 2-([2,2′-Bipyrimidin]-5 yl)-4-methyl-3,4-dihydroisoquinolin-1(2H)-one] |  | 9.1 µM |
| Fc1cc2c(cc1F)CN(c1ccnc(-c3ncccn3)n1)CC2 [Example 17, 2-([2,2′-Bipyrimidin]-4-yl)-6,7-difluoro-1,2,3,4-tetrahydroisoquinoline] |  | 0.61 µM |
| COc1cc2c(cc1OC)C1(CCC1)N(c1cnc(-c3ncccn3)nc1)CC2 [Example 18, 2′-([2,2′-Bipyrimidin]-5-yl)-6′,7′-dimethoxy-3′,4′-dihydro-2′H-spiro[cyclobutane-1,1′-isoquinoline]] |  | 50 µM |
| CCC1c2ccccc2CN1c1cnc(-c2ncccn2)nc1 (stereo not shown) [Example 19, 2-([2,2′-Bipyrimidin]-5-yl)-1-ethylisoindoline] |  | 0.8 µM |
| c1cnc(-c2ncc(N3CC4CCC3c3ccccc34)cn2)nc1 (stereo not shown) [Example 20, 10-([2,2′-Bipyrimidin]-5-yl)-1,2,3,4-tetrahydro-1,4-(epiminomethano) naphthalene] |  | 32 µM |
| c1cnc(-c2ncc(N3CC4CC3c3ccccc34)cn2)nc1 (stereo not shown) [Example 21, 2-([2,2′-Bipyrimidin]-5-yl)-1,2,3,4-tetrahydro-1,4-methanoisoquinoline] |  | 27 µM |
| c1cnc(-c2ncc(N3C4CCC3c3ccccc34)cn2)nc1 [Example 22, 9-([2,2′-Bipyrimidin]-5-yl)-1,2,3,4-tetrahydro-1,4-epiminonaphthalene] |  | 21 µM |
| CCCC1c2ccccc2CCN1c1ccnc(-c2ncccn2)n1 (stereo not shown) [Example 23, 2-([2,2′-Bipyrimidin]-4-yl)-1-propyl-1,2,3,4-tetrahydroisoquinoline] |  | 1 µM |
| CC1c2ccc(F)c(F)c2CCN1c1cnc(-c2ncccn2)nc1 (stereo not shown) [Example 24, 2-([2,2′-Bipyrimidin]-5-yl)-5,6-difluoro-1-methyl-1,2,3,4-tetrahydroisoquinoline] |  | 0.34 µM |
| CCC1c2cc(F)c(F)cc2CCN1c1cnc(-c2ncccn2)nc1 (stereo not shown) [Example 25, 2-([2,2′-Bipyrimidin]-5-yl)-1-ethyl-6,7-difluoro-1,2,3,4-tetrahydroisoquinoline] |  | 0.085 µM |
| COC(=O)CC1c2cc(OC)c(OC)cc2CCN1c1cnc(-c2ncccn2)nc1 (stereo not shown) [Example 26, Methyl 2-(2-([2,2′-bipyrimidin]-5-yl)-6,7-dimethoxy-1,2,3,4-tetrahydroisoquinolin-1-yl) acetate] |  | 1.2 µM |
| COc1cc2c(cc1OC)C(CC(=O)O)N(c1cnc(-c3ncccn3)nc1)CC2 (stereo not shown) [Example 27, 2-(2-([2,2′-Bipyrimidin]-5-yl)-6,7-dimethoxy-1,2,3,4-tetrahydroisoquinolin-1-yl) acetic Acid] |  | 28 µM |
| CCC1c2ccc(OC)c(OC)c2CCN1c1cnc(-c2ncccn2)nc1 (stereo not shown) [Example 28, 2-([2,2′-Bipyrimidin]-5-yl)-1-ethyl-5,6-dimethoxy-1,2,3,4 Tetrahydroisoquinoline] |  | 0.18 µM |
| CCC1c2cc(OC)c(F)c(F)c2CCN1c1cnc(-c2ncccn2)nc1 (stereo not shown) [Example 29, 1-Ethyl-5,6-difluoro-7-methoxy-2-(2-pyrimidin-2-ylpyrimidin-5-yl)-3,4-dihydro-1H-isoquinoline] |  | 0.17 µM |
